# Reference: PMC10389763, “BlaPSZ-1, a novel AmpC gene identified from a Pantoea isolate” (Frontiers in Microbiology, 2023)
# pIC50: −log10 of the molar value.
# Biological target: T1, PSZ-1 (AmpC β-lactamase)
# T1 construct: gene blaPSZ-1; recombinant PSZ-1 from pCold I in E. coli BL21, His-tag removed with thrombin
# Experiment: inhibition of nitrocefin hydrolysis, […] min preincubation, […]°C
# Type: biochemical, Pantoea endophytica
row,Structure (SMILES),pIC50
1,NC(=O)[C@@H]1CC[C@@H]2CN1C(=O)N2OS(=O)(=O)O [avibactam],7.26
2,C[C@]1(Cn2ccnn2)[C@H](C(=O)O)N2C(=O)C[C@H]2S1(=O)=O [tazobactam],5.10
